Source: ChEMBL document CHEMBL3137667, “[Drug-induced liver injury; fourteenth updated edition of the bibliographic database of liver injuries and related drugs]” (Gastroenterol Clin Biol, 2004)

Tests used:
[1] = human
[2] = human; remark: listed apart in the source
[3] = human, serum
[4] = human; remark: listed apart in the source
[5] = human; remark: listed apart in the source
[6] = human; remark: listed apart in the source
[7] = human, serum; remark: listed apart in the source
[8] = human; remark: listed apart in the source
[9] = human, serum, 4383 h
[10] = human; remark: listed apart in the source
[11] = Highest frequency of moderate liver toxicity observed during clinical trials, expressed as a percentage. [column '% BIOL' in source]; conditions: human
[12] = human; remark: listed apart in the source
[13] = human; remark: listed apart in the source
[14] = Highest frequency of acute liver toxicity observed during clinical trials, expressed as a percentage. [column '% AIGUE' in source]; conditions: human
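Wherever Hepatotoxicity (association with vascular disease) is given: count of indexed literature references reporting vascular liver injury in humans, e.g. peliosis hepatitis, hepatic veno-occlusive disease or Budd-Chiari syndrome.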
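Wherever Hepatotoxicity (benign tumour) is given: value is a count of indexed literature references citing a benign tumour confirmed by histopathology.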
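Wherever Hepatotoxicity (choleostasis) is given: human cholestatic liver injury, shown by histopathology or by peak ALT or AST elevation over alkaline phosphatase ratio below 2, value counts indexed literature reports.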
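Wherever Hepatotoxicity (chronic liver disease) is given: chronic liver injury confirmed by histopathology or persistently raised serum aminotransferase activity beyond 6 months, value given as the count of indexed literature references.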
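Wherever Hepatotoxicity (cirrhosis) is given: value is a count of indexed literature references reporting cirrhosis confirmed by histopathology.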
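Wherever Hepatotoxicity (cytolytic) is given: human cytolytic liver injury, shown by histopathology or by a ratio above 5 of peak ALT or AST elevation to alkaline phosphatase elevation, value counts indexed references.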
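Wherever Hepatotoxicity (granulomatous hepatitis) is given: value is a count of indexed literature references reporting granulomatous liver disease confirmed by histopathology.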
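Wherever Hepatotoxicity (malignant tumour) is given: malignant tumour confirmed by histopathology, value gives the count of indexed literature references reporting it.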
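Wherever Hepatotoxicity (severe hepatitis) is given: human clinical data: severe hepatitis, meaning potentially life-threatening liver failure or clinically observed cases, the value counts how many indexed literature references report it.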
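Wherever Hepatotoxicity (steatosis) is given: steatosis confirmed by histopathology, value is the count of indexed references.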

## CC(C(=O)O)c1ccc(CC2CCCC2=O)cc1 (centres undefined) [LOXOPROFEN]
[1]
  Hepatotoxicity (granulomatous hepatitis): 0
[2]
  Hepatotoxicity (severe hepatitis): 1
[3]
  Hepatotoxicity (acute): 1
[4]
  Hepatotoxicity (benign tumour): 0
[5]
  Hepatotoxicity (choleostasis): 0
[6]
  Hepatotoxicity (steatosis): 0
[7]
  Hepatotoxicity (moderate): 0
[8]
  Hepatotoxicity (cirrhosis): 0
[9]
  Hepatotoxicity (chronic liver disease): 0
[10]
  Hepatotoxicity (association with vascular disease): 0
[11]
  Hepatotoxicity (moderate): 0%
[12]
  Hepatotoxicity (malignant tumour): 0
[13]
  Hepatotoxicity (cytolytic): 0
[14]
  Hepatotoxicity (acute): 0%

## C#C[C@]1(O)CC[C@H]2[C@@H]3CCC4=CCCC[C@@H]4[C@H]3CC[C@@]21C [LYNESTRENOL]
[1]
  Hepatotoxicity (granulomatous hepatitis): 0
[2]
  Hepatotoxicity (severe hepatitis): 0
[3]
  Hepatotoxicity (acute): 3
[4]
  Hepatotoxicity (benign tumour): 0
[5]
  Hepatotoxicity (choleostasis): 3
[6]
  Hepatotoxicity (steatosis): 0
[7]
  Hepatotoxicity (moderate): 0
[8]
  Hepatotoxicity (cirrhosis): 0
[9]
  Hepatotoxicity (chronic liver disease): 0
[10]
  Hepatotoxicity (association with vascular disease): 0
[11]
  Hepatotoxicity (moderate): 0%
[12]
  Hepatotoxicity (malignant tumour): 0
[13]
  Hepatotoxicity (cytolytic): 0
[14]
  Hepatotoxicity (acute): 0%

## CC(NN)c1ccccc1 (centres undefined) [MEBANAZINE]
[1]
  Hepatotoxicity (granulomatous hepatitis): 0
[2]
  Hepatotoxicity (severe hepatitis): 0
[3]
  Hepatotoxicity (acute): 0
[4]
  Hepatotoxicity (benign tumour): 0
[5]
  Hepatotoxicity (choleostasis): 0
[6]
  Hepatotoxicity (steatosis): 0
[7]
  Hepatotoxicity (moderate): 1
[8]
  Hepatotoxicity (cirrhosis): 0
[9]
  Hepatotoxicity (chronic liver disease): 0
[10]
  Hepatotoxicity (association with vascular disease): 0
[11]
  Hepatotoxicity (moderate): 9%
[12]
  Hepatotoxicity (malignant tumour): 0
[13]
  Hepatotoxicity (cytolytic): 0
[14]
  Hepatotoxicity (acute): 0%

## CCC(C)C(C)(COC(N)=O)COC(N)=O (centres undefined) [MEBUTAMATE]
[1]
  Hepatotoxicity (granulomatous hepatitis): 0
[2]
  Hepatotoxicity (severe hepatitis): 0
[3]
  Hepatotoxicity (acute): 1
[4]
  Hepatotoxicity (benign tumour): 0
[5]
  Hepatotoxicity (choleostasis): 1
[6]
  Hepatotoxicity (steatosis): 0
[7]
  Hepatotoxicity (moderate): 0
[8]
  Hepatotoxicity (cirrhosis): 0
[9]
  Hepatotoxicity (chronic liver disease): 0
[10]
  Hepatotoxicity (association with vascular disease): 0
[11]
  Hepatotoxicity (moderate): 0%
[12]
  Hepatotoxicity (malignant tumour): 0
[13]
  Hepatotoxicity (cytolytic): 0
[14]
  Hepatotoxicity (acute): 0%

## CO[C@H]1Cc2c(O)cc(O)cc2O[C@@H]1c1ccc(O)c(O)c1 [MECIADANOL]
[1]
  Hepatotoxicity (granulomatous hepatitis): 0
[2]
  Hepatotoxicity (severe hepatitis): 0
[3]
  Hepatotoxicity (acute): 0
[4]
  Hepatotoxicity (benign tumour): 0
[5]
  Hepatotoxicity (choleostasis): 0
[6]
  Hepatotoxicity (steatosis): 0
[7]
  Hepatotoxicity (moderate): 1
[8]
  Hepatotoxicity (cirrhosis): 0
[9]
  Hepatotoxicity (chronic liver disease): 0
[10]
  Hepatotoxicity (association with vascular disease): 0
[11]
  Hepatotoxicity (moderate): 34.8%
[12]
  Hepatotoxicity (malignant tumour): 0
[13]
  Hepatotoxicity (cytolytic): 0
[14]
  Hepatotoxicity (acute): 0%

## Cc1ccc(Cl)c(Nc2ccccc2C(=O)O)c1Cl [MECLOFENAMIC ACID]
[1]
  Hepatotoxicity (granulomatous hepatitis): 0
[2]
  Hepatotoxicity (severe hepatitis): 0
[3]
  Hepatotoxicity (acute): 0
[4]
  Hepatotoxicity (benign tumour): 0
[5]
  Hepatotoxicity (choleostasis): 0
[6]
  Hepatotoxicity (steatosis): 0
[7]
  Hepatotoxicity (moderate): 2
[8]
  Hepatotoxicity (cirrhosis): 0
[9]
  Hepatotoxicity (chronic liver disease): 0
[10]
  Hepatotoxicity (association with vascular disease): 0
[11]
  Hepatotoxicity (moderate): 0%
[12]
  Hepatotoxicity (malignant tumour): 0
[13]
  Hepatotoxicity (cytolytic): 0
[14]
  Hepatotoxicity (acute): 0%

## Nc1nc(N)nc(Nc2ccc([As]3SCC(CO)S3)cc2)n1 (centres undefined) [MELARSOPROL]
[1]
  Hepatotoxicity (granulomatous hepatitis): 0
[2]
  Hepatotoxicity (severe hepatitis): 0
[3]
  Hepatotoxicity (acute): 0
[4]
  Hepatotoxicity (benign tumour): 0
[5]
  Hepatotoxicity (choleostasis): 0
[6]
  Hepatotoxicity (steatosis): 0
[7]
  Hepatotoxicity (moderate): 3
[8]
  Hepatotoxicity (cirrhosis): 0
[9]
  Hepatotoxicity (chronic liver disease): 0
[10]
  Hepatotoxicity (association with vascular disease): 0
[11]
  Hepatotoxicity (moderate): 1%
[12]
  Hepatotoxicity (malignant tumour): 0
[13]
  Hepatotoxicity (cytolytic): 0
[14]
  Hepatotoxicity (acute): 0%

## CC1CCN(CCCC(=O)c2ccc(F)cc2)CC1 [MELPERONE]
[1]
  Hepatotoxicity (granulomatous hepatitis): 0
[2]
  Hepatotoxicity (severe hepatitis): 0
[3]
  Hepatotoxicity (acute): 0
[4]
  Hepatotoxicity (benign tumour): 0
[5]
  Hepatotoxicity (choleostasis): 0
[6]
  Hepatotoxicity (steatosis): 0
[7]
  Hepatotoxicity (moderate): 2
[8]
  Hepatotoxicity (cirrhosis): 0
[9]
  Hepatotoxicity (chronic liver disease): 0
[10]
  Hepatotoxicity (association with vascular disease): 0
[11]
  Hepatotoxicity (moderate): 12%
[12]
  Hepatotoxicity (malignant tumour): 0
[13]
  Hepatotoxicity (cytolytic): 0
[14]
  Hepatotoxicity (acute): 0%

## CO[C@@H]1C[C@](C)(O)Cc2cc3c(c(O)c21)C(=O)c1c(O)cc2c(c1C3=O)O[C@@H]1O[C@@]2(C)[C@H](O)[C@@H](N(C)C)[C@@H]1O [MENOGARIL]
[1]
  Hepatotoxicity (granulomatous hepatitis): 0
[2]
  Hepatotoxicity (severe hepatitis): 0
[3]
  Hepatotoxicity (acute): 0
[4]
  Hepatotoxicity (benign tumour): 0
[5]
  Hepatotoxicity (choleostasis): 0
[6]
  Hepatotoxicity (steatosis): 0
[7]
  Hepatotoxicity (moderate): 4
[8]
  Hepatotoxicity (cirrhosis): 0
[9]
  Hepatotoxicity (chronic liver disease): 0
[10]
  Hepatotoxicity (association with vascular disease): 0
[11]
  Hepatotoxicity (moderate): 16.7%
[12]
  Hepatotoxicity (malignant tumour): 0
[13]
  Hepatotoxicity (cytolytic): 0
[14]
  Hepatotoxicity (acute): 0%

## O=C1NC(=S)NC(=O)C1C(=O)Nc1ccccc1 [MERBARONE]
[1]
  Hepatotoxicity (granulomatous hepatitis): 0
[2]
  Hepatotoxicity (severe hepatitis): 0
[3]
  Hepatotoxicity (acute): 1
[4]
  Hepatotoxicity (benign tumour): 0
[5]
  Hepatotoxicity (choleostasis): 0
[6]
  Hepatotoxicity (steatosis): 0
[7]
  Hepatotoxicity (moderate): 3
[8]
  Hepatotoxicity (cirrhosis): 0
[9]
  Hepatotoxicity (chronic liver disease): 0
[10]
  Hepatotoxicity (association with vascular disease): 0
[11]
  Hepatotoxicity (moderate): 28.6%
[12]
  Hepatotoxicity (malignant tumour): 0
[13]
  Hepatotoxicity (cytolytic): 0
[14]
  Hepatotoxicity (acute): 3.8%

## C[C@@H](O)[C@H]1C(=O)N2C(C(=O)O)=C(S[C@@H]3CN[C@H](C(=O)N(C)C)C3)[C@H](C)[C@H]12 [MEROPENEM]
[1]
  Hepatotoxicity (granulomatous hepatitis): 0
[2]
  Hepatotoxicity (severe hepatitis): 0
[3]
  Hepatotoxicity (acute): 1
[4]
  Hepatotoxicity (benign tumour): 0
[5]
  Hepatotoxicity (choleostasis): 0
[6]
  Hepatotoxicity (steatosis): 0
[7]
  Hepatotoxicity (moderate): 92
[8]
  Hepatotoxicity (cirrhosis): 0
[9]
  Hepatotoxicity (chronic liver disease): 0
[10]
  Hepatotoxicity (association with vascular disease): 0
[11]
  Hepatotoxicity (moderate): 48.1%
[12]
  Hepatotoxicity (malignant tumour): 0
[13]
  Hepatotoxicity (cytolytic): 0
[14]
  Hepatotoxicity (acute): 5.3%

## Cc1cc(C)cc(OCC2CNC(=O)O2)c1 (centres undefined) [METAXALONE]
[1]
  Hepatotoxicity (granulomatous hepatitis): 0
[2]
  Hepatotoxicity (severe hepatitis): 0
[3]
  Hepatotoxicity (acute): 2
[4]
  Hepatotoxicity (benign tumour): 0
[5]
  Hepatotoxicity (choleostasis): 0
[6]
  Hepatotoxicity (steatosis): 0
[7]
  Hepatotoxicity (moderate): 0
[8]
  Hepatotoxicity (cirrhosis): 0
[9]
  Hepatotoxicity (chronic liver disease): 0
[10]
  Hepatotoxicity (association with vascular disease): 0
[11]
  Hepatotoxicity (moderate): 0%
[12]
  Hepatotoxicity (malignant tumour): 0
[13]
  Hepatotoxicity (cytolytic): 0
[14]
  Hepatotoxicity (acute): 0%

## CSCC[C@H](N)C(=O)O [METHIONINE]
[1]; Liver
  Hepatotoxicity (granulomatous hepatitis): 0
[2]; Liver
  Hepatotoxicity (severe hepatitis): 0
[3]
  Hepatotoxicity (acute): 2
[4]
  Hepatotoxicity (benign tumour): 0
[5]; Liver
  Hepatotoxicity (choleostasis): 0
[6]
  Hepatotoxicity (steatosis): 0
[7]
  Hepatotoxicity (moderate): 1
[8]
  Hepatotoxicity (cirrhosis): 0
[9]
  Hepatotoxicity (chronic liver disease): 0
[10]
  Hepatotoxicity (association with vascular disease): 0
[11]; Liver
  Hepatotoxicity (moderate): 0%
[12]
  Hepatotoxicity (malignant tumour): 0
[13]; Liver
  Hepatotoxicity (cytolytic): 1
[14]; Liver
  Hepatotoxicity (acute): 0%

## CN1C(CCl)Nc2cc(Cl)c(S(N)(=O)=O)cc2S1(=O)=O (centres undefined) [METHYCLOTHIAZIDE]
[1]
  Hepatotoxicity (granulomatous hepatitis): 0
[2]
  Hepatotoxicity (severe hepatitis): 0
[3]
  Hepatotoxicity (acute): 0
[4]
  Hepatotoxicity (benign tumour): 0
[5]
  Hepatotoxicity (choleostasis): 0
[6]
  Hepatotoxicity (steatosis): 0
[7]
  Hepatotoxicity (moderate): 1
[8]
  Hepatotoxicity (cirrhosis): 0
[9]
  Hepatotoxicity (chronic liver disease): 0
[10]
  Hepatotoxicity (association with vascular disease): 0
[11]
  Hepatotoxicity (moderate): 0%
[12]
  Hepatotoxicity (malignant tumour): 0
[13]
  Hepatotoxicity (cytolytic): 0
[14]
  Hepatotoxicity (acute): 0%

## Clc1ccc(COC(Cn2ccnc2)c2ccc(Cl)cc2Cl)c(Cl)c1 (centres undefined) [MICONAZOLE]
[1]
  Hepatotoxicity (granulomatous hepatitis): 0
[2]
  Hepatotoxicity (severe hepatitis): 0
[3]
  Hepatotoxicity (acute): 0
[4]
  Hepatotoxicity (benign tumour): 0
[5]
  Hepatotoxicity (choleostasis): 0
[6]
  Hepatotoxicity (steatosis): 0
[7]
  Hepatotoxicity (moderate): 2
[8]
  Hepatotoxicity (cirrhosis): 0
[9]
  Hepatotoxicity (chronic liver disease): 0
[10]
  Hepatotoxicity (association with vascular disease): 0
[11]
  Hepatotoxicity (moderate): 0%
[12]
  Hepatotoxicity (malignant tumour): 0
[13]
  Hepatotoxicity (cytolytic): 0
[14]
  Hepatotoxicity (acute): 0%

## CC(C)/N=C/Nc1ccc(-c2c[nH]cn2)cc1 [MIFENTIDINE]
[1]
  Hepatotoxicity (granulomatous hepatitis): 0
[2]
  Hepatotoxicity (severe hepatitis): 0
[3]
  Hepatotoxicity (acute): 0
[4]
  Hepatotoxicity (benign tumour): 0
[5]
  Hepatotoxicity (choleostasis): 0
[6]
  Hepatotoxicity (steatosis): 0
[7]
  Hepatotoxicity (moderate): 1
[8]
  Hepatotoxicity (cirrhosis): 0
[9]
  Hepatotoxicity (chronic liver disease): 0
[10]
  Hepatotoxicity (association with vascular disease): 0
[11]
  Hepatotoxicity (moderate): 3.3%
[12]
  Hepatotoxicity (malignant tumour): 0
[13]
  Hepatotoxicity (cytolytic): 0
[14]
  Hepatotoxicity (acute): 0%
